# Legend:
# [1] = target: T1, myeloperoxidase (MPO) (Homo sapiens (Human), UniProt P05164); assay: MPO peroxidation assay (Amplex Red assay); assay type: biochemical; conditions: potency range class
# Protocol: MPO Peroxidation Assay (Amplex Red Assay) MPO peroxidation activity was measured in 100 mM KPi (pH 7.4) by utilizing the non-fluorescent reagent Amplex Red (Invitrogen Cat. #A12222) which can be oxidized to the highly fluorescent resorufin. Amplex Red is oxidized by the peroxidase action of MPO to resorufin. Reactions were carried out in 50 μL total volume by adding a 25 μL mixture of 200 pM myeloperoxidase and 40 nM H2O2(Sigma #349887) to 100 nL inhibitor in 100% DMSO in a 384 well Perkin Elmer Optiplate. Enzyme and compound were preincubated for ten minutes at room temperature. After the ten minute preincubation, 25 μL of an Amplex Red mixture containing 200 μM Amplex Red and 10 mM H2O2 was added to the plate. Kinetic determinations were carried out immediately on a Perkin Elmer Envision (15 minute kinetic read, Ex: 535 nm, Em: 590 nm). IC50 values were calculated by determining the slope of the linear portion of the kinetic trace (180-540 secs), and using that calculated slope to determine % inhibition occurring at each concentration of inhibitor using the following equation: [formula] where A=minimal Y value (activity level of inhibited sample), B=maximal Y value (activity level of uninhibited sample), C=Log IC50, D=Hill Slope, x=concentration of inhibitor. MPO Chlorination Assay (APF Assay)
# [2] = target: T1, myeloperoxidase (MPO); assay: MPO chlorination assay (APF assay); assay type: biochemical; conditions: potency range class
# Protocol: [formula] where A=minimal Y value (activity level of inhibited sample), B=maximal Y value (activity level of uninhibited sample), C=Log IC50, D=Hill Slope, x=concentration of inhibitor. MPO Chlorination Assay (APF Assay) MPO chlorination activity was measured in 100 mM KPi (pH 7.4) by utilizing the non-fluorescent reagent Aminophenyl fluorescein (APF, Invitrogen Cat. #A36003). APF is cleaved by (—OCl) to yield the fluorescent compound fluorescein. Reactions were carried out in 50 μL total volume by adding a 25 μL mixture of 200 pM myeloperoxidase and 120 mM NaCl to 100 nL inhibitor in 100% DMSO in a 384 well, non-binding surface clear bottom plate (Corning #3655). Enzyme, inhibitor, and chloride were preincubated for ten minutes at room temperature. After the ten minute preincubation, 25 μL of an APF mixture containing […], 120 mM NaCl and 10 μM H2O2 was added to the plate using the internal dispensing system of a Hammatsu FDSS 6000. Kinetic determinations were carried out immediately on the FDSS 6000 (3 minute kinetic read, 1 read every second, ex: 485 nm, em: 535 nm). IC50 values for inhibitors were calculated by taking the slope of the linear portion of the kinetic measurement (20 seconds to ˜80-120 secs). IC50 values were calculated by determining the slope of the linear portion of the kinetic trace […], and using that calculated slope to determine % inhibition occurring at each concentration of inhibitor using the following equation: [formula] where A=minimal Y value (activity level of inhibited sample), B=maximal Y value (activity level of uninhibited sample), C=Log IC50, D=Hill Slope, x=concentration of inhibitor. EPX Bromination Assay
# T1 sequence (P05164 49-745): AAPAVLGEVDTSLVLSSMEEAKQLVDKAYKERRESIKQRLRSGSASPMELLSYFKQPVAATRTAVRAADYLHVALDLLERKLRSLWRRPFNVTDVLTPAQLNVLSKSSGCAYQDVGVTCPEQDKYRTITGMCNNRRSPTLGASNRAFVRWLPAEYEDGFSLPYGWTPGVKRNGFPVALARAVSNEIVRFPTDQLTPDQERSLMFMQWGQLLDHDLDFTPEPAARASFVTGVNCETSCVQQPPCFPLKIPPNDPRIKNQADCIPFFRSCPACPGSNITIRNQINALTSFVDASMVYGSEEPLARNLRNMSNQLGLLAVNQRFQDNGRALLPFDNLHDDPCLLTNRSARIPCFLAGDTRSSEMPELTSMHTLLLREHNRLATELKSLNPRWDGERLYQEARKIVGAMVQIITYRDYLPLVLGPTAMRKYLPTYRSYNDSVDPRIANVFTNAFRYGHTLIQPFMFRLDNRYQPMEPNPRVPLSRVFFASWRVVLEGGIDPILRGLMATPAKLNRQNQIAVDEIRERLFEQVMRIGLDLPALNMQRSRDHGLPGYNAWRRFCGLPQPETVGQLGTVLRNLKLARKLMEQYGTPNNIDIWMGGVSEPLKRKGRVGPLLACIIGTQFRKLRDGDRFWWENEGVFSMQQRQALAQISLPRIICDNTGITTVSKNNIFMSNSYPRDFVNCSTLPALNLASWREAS
IC50 [1] [nM],IC50 [2] [nM],Compound
1 to 100,1 to 100,"Nc1cc(Cc2cnn(-c3cccc4ccccc34)c2)c2nn[nH]c2n1 [Example 9, 7-((1-(Naphthalen-1-yl)-1H-pyrazol-4-yl)methyl)-3H-[1,2,3]triazolo[4,5-b]pyridin-5-amine]"
1 to 100,101 to 999,"Cc1cc(-n2cc(Cc3cc(N)nc4[nH]nnc34)cn2)ccc1F [Example 10, 7-((1-(4-Fluoro-3-methylphenyl)-1H-pyrazol-4-yl)methyl)-3H-[1,2,3]triazolo[4,5-b]pyridin-5-amine]"
1 to 100,1 to 100,"Nc1cc(Cc2cnn(-c3cccc(-c4ccccc4)c3)c2)c2nn[nH]c2n1 [Example 11, 7-((1-([1,1′-Biphenyl]-3-yl)-1H-pyrazol-4-yl)methyl)-3H-[1,2,3]triazolo[4,5-b]pyridin-5-amine]"
1 to 100,101 to 999,"Nc1cc(Cc2cnn(-c3cccc(C(F)(F)F)c3)c2)c2nn[nH]c2n1 [Example 14, 7-((1-(3-(Trifluoromethyl)phenyl)-1H-pyrazol-4-yl)methyl)-3H-[1,2,3]triazolo[4,5-b]pyridin-5-amine]"
1 to 100,1 to 100,"Cc1ccnc(-n2cc(Cc3cc(N)nc4[nH]nnc34)cn2)c1 [Example 19, 7-((1-(4-Methylpyridin-2-yl)-1H-pyrazol-4-yl)methyl)-3H-[1,2,3]triazolo[4,5-b]pyridin-5-amine]"
1 to 100,1 to 100,"Cc1cccc(-n2cc(Cc3cc(N)nc4[nH]nnc34)cn2)n1 [Example 20, 7-((1-(6-Methylpyridin-2-yl)-1H-pyrazol-4-yl)methyl)-3H-[1,2,3]triazolo[4,5-b]pyridin-5-amine]"
1 to 100,101 to 999,"Nc1cc(Cc2cnn(-c3cccc(Cc4ccccc4)c3)c2)c2nn[nH]c2n1 [Example 21, 7-((1-(3-Benzylphenyl)-1H-pyrazol-4-yl)methyl)-3H-[1,2,3]triazolo[4,5-b]pyridin-5-amine]"
101 to 999,1 to 100,"Cc1ccccc1-n1cc(Cc2cc(N)nc3[nH]nnc23)cn1 [Example 24, 7-((1-(2-Methylphenyl)-1H-pyrazol-4-yl)methyl)-3H-[1,2,3]triazolo[4,5-b]pyridin-5-amine]"
1 to 100,101 to 999,"Cc1cccc(-n2cc(Cc3cc(N)nc4[nH]nnc34)cn2)c1 [Example 25, 7-((1-(3-Methylphenyl)-1H-pyrazol-4-yl)methyl)-3H-[1,2,3]triazolo[4,5-b]pyridin-5-amine]"
1 to 100,1 to 100,"Nc1cc(Cc2cnn(-c3ccccn3)c2)c2nn[nH]c2n1 [Example 31, 7-((1-(Pyridin-2-yl)-1H-pyrazol-4-yl)methyl)-3H-[1,2,3]triazolo[4,5-b]pyridin-5-amine]"
101 to 999,101 to 999,"Nc1cc(Cc2ccn(-c3ccccc3)n2)c2nn[nH]c2n1 [Example 33, 7-((1-Phenyl-1H-pyrazol-3-yl)methyl)-3H-[1,2,3]triazolo[4,5-b]pyridin-5-amine]"
1 to 100,101 to 999,"Nc1cc(Cc2cnn(-c3cccc(COc4ccccc4)c3)c2)c2nn[nH]c2n1 [Example 36, 7-((1-(3-(Phenoxymethyl)phenyl)-1H-pyrazol-4-yl)methyl)-3H-[1,2,3]triazolo[4,5-b]pyridin-5-amine]"
1 to 100,101 to 999,"Nc1cc(Cc2cnn(Cc3ccc(-c4ccccc4)cc3)c2)c2nn[nH]c2n1 [Example 39, 7-((1-([1,1′-Biphenyl]-4-ylmethyl)-1H-pyrazol-4-yl)methyl)-3H-[1,2,3]triazolo[4,5-b]pyridin-5-amine]"
1 to 100,1 to 100,"Nc1cc(Cc2cnn(CCc3ccccc3)c2)c2nn[nH]c2n1 [Example 40, 7-((1-Phenethyl-1H-pyrazol-4-yl)methyl)-3H-[1,2,3]triazolo[4,5-b]pyridin-5-amine]"
1 to 100,1 to 100,"Nc1cc(Cc2cnn(Cc3cccc4ccccc34)c2)c2nn[nH]c2n1 [Example 41, 7-((1-(Naphthalen-1-ylmethyl)-1H-pyrazol-4-yl)methyl)-3H-[1,2,3]triazolo[4,5-b]pyridin-5-amine]"
1 to 100,1 to 100,"Nc1cc(Cc2cnn(Cc3ccc4ccccc4c3)c2)c2nn[nH]c2n1 [Example 42, 7-((1-(Naphthalen-2-ylmethyl)-1H-pyrazol-4-yl)methyl)-3H-[1,2,3]triazolo[4,5-b]pyridin-5-amine]"
1 to 100,101 to 999,"Cc1ccccc1Cn1cc(Cc2cc(N)nc3[nH]nnc23)cn1 [Example 43, 7-((1-(2-Methylbenzyl)-1H-pyrazol-4-yl)methyl)-3H-[1,2,3]triazolo[4,5-b]pyridin-5-amine]"
1 to 100,1 to 100,"Nc1cc(Cc2cnn(Cc3cccc(-c4ccccc4)c3)c2)c2nn[nH]c2n1 [Example 44, 7-((1-([1,1′-Biphenyl]-3-ylmethyl)-1H-pyrazol-4-yl)methyl)-3H-[1,2,3]triazolo[4,5-b]pyridin-5-amine]"
1 to 100,1 to 100,"Nc1cc(Cc2cnn(Cc3ccc(Cl)cc3)c2)c2nn[nH]c2n1 [Example 45, 7-((1-(4-Chlorobenzyl)-1H-pyrazol-4-yl)methyl)-3H-[1,2,3]triazolo[4,5-b]pyridin-5-amine]"
1000 to 10000,1000 to 10000,"Nc1cc(Cc2cnn(Cc3ccc(C(=O)O)cc3)c2)c2nn[nH]c2n1 [Example 46, 4-((4-((5-Amino-3H-[1,2,3]triazolo[4,5-b]pyridin-7-yl)methyl)-1H-pyrazol-1-yl)methyl)benzoic acid]"
101 to 999,101 to 999,"Nc1cc(Cc2cc(-c3ccccc3)no2)c2nn[nH]c2n1 [Example 48, 7-((3-Phenylisoxazol-5-yl)methyl)-3H-[1,2,3]triazolo[4,5-b]pyridin-5-amine]"
1 to 100,1 to 100,"Nc1cc(Cc2cnn(C3CCCC3)c2)c2nn[nH]c2n1 [Example 54, 7-((1-Cyclopentyl-1H-pyrazol-4-yl)methyl)-3H-[1,2,3]triazolo[4,5-b]pyridin-5-amine]"
1 to 100,1 to 100,"Nc1cc(Cc2cnn(CC3CCCCC3)c2)c2nn[nH]c2n1 [Example 55, 7-((1-(Cyclohexylmethyl)-1H-pyrazol-4-yl)methyl)-3H-[1,2,3]triazolo[4,5-b]pyridin-5-amine]"
1 to 100,101 to 999,"Nc1cc(Cc2cnn(Cc3ccc(-n4cccn4)cc3)c2)c2nn[nH]c2n1 [Example 56, 7-[(1-{[4-(1H-Pyrazol-1-yl)phenyl]methyl}-1H-pyrazol-4-yl)methyl]-3H-[1,2,3]triazolo[4,5-b]pyridin-5-amine]"
1 to 100,1 to 100,"Nc1cc(Cc2cnn(Cc3ccccc3Cl)c2)c2nn[nH]c2n1 [Example 57, 7-((1-(2-Chlorobenzyl)-1H-pyrazol-4-yl)methyl)-3H-[1,2,3]triazolo[4,5-b]pyridin-5-amine]"
1 to 100,101 to 999,"Cc1nc(-c2cccc(Cn3cc(Cc4cc(N)nc5[nH]nnc45)cn3)c2)no1 [Example 59, 7-((1-(3-(5-Methyl-1,2,4-oxadiazol-3-yl)benzyl)-1H-pyrazol-4-yl)methyl)-3H-[1,2,3]triazolo[4,5-b]pyridin-5-amine]"
1 to 100,1 to 100,"Nc1cc(Cc2cnn(Cc3cccc(OC(F)(F)F)c3)c2)c2nn[nH]c2n1 [Example 60, 7-((1-(3-(Trifluoromethoxy)benzyl)-1H-pyrazol-4-yl)methyl)-3H-[1,2,3]triazolo[4,5-b]pyridin-5-amine]"
1 to 100,1 to 100,"Nc1cc(Cc2cnn(Cc3cccc(OC(F)F)c3)c2)c2nn[nH]c2n1 [Example 61, 7-((1-(3-(Difluoromethoxy)benzyl)-1H-pyrazol-4-yl)methyl)-3H-[1,2,3]triazolo[4,5-b]pyridin-5-amine]"
1 to 100,101 to 999,"Nc1cc(Cc2cnn(Cc3cccc(C(F)(F)F)c3)c2)c2nn[nH]c2n1 [Example 62, 7-((1-(3-(Trifluoromethyl)benzyl)-1H-pyrazol-4-yl)methyl)-3H-[1,2,3]triazolo[4,5-b]pyridin-5-amine]"
